According to paper PMC8865417, “Receptor Interaction Profiles of 4-Alkoxy-3,5-Dimethoxy-Phenethylamines (Mescaline Derivatives) and Related Amphetamines” (Frontiers in Pharmacology, 2022):

What was measured:
hα1A adrenergic receptor = target: T1, hα1A adrenergic receptor (Homo sapiens, UniProt P35348); assay: Radioligand binding at hα1A adrenergic receptor ([3H]prazosin); settings: mean ± SD
T1 construct: expressed in transfected cells; host or cells: Chinese hamster ovary cells (membrane preparations)
T1 sequence (P35348 1-466): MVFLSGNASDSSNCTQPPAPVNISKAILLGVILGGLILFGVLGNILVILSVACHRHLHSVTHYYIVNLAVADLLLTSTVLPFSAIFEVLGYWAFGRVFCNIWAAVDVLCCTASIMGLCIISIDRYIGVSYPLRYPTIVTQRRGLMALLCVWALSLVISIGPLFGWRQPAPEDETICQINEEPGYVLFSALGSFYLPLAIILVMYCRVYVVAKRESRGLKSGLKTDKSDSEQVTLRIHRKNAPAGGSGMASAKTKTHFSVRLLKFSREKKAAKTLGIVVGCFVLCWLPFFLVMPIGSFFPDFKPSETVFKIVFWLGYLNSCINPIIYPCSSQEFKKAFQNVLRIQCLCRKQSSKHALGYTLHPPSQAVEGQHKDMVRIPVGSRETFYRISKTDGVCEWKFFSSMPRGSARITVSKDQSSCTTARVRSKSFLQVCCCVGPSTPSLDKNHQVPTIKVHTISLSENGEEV

hα2A adrenergic receptor = target: T2, hα2A adrenergic receptor (Homo sapiens, UniProt P08913); assay: Radioligand binding at hα2A adrenergic receptor ([3H]rauwolscine)
T2 construct: expressed in transfected cells; host or cells: Chinese hamster lung cells (membrane preparations)
T2 sequence (P08913 1-465): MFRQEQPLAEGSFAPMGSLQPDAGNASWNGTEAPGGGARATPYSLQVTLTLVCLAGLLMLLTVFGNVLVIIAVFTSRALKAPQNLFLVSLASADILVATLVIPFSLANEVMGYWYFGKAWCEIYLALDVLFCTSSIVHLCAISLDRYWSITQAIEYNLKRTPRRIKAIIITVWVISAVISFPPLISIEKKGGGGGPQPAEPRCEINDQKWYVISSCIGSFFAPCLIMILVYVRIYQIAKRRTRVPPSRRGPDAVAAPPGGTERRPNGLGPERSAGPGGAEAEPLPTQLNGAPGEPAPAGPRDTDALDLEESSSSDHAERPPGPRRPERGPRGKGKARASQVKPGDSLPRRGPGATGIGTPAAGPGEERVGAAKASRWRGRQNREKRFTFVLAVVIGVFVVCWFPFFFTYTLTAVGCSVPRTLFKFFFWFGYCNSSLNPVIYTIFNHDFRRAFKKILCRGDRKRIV

hDAT = target: T3, hDAT (Homo sapiens, UniProt Q01959); assay: Radioligand binding at hDAT ([3H]WIN35,428)
T3 construct: expressed in transfected cells; host or cells: HEK 293 cells (membrane preparations)

hSERT = target: T4, hSERT (Homo sapiens, UniProt P31645); assay: Radioligand binding at hSERT ([3H]citalopram)
T4 construct: expressed in transfected cells; host or cells: HEK 293 cells (membrane preparations)

rat TAAR1 = target: T5, rat TAAR1 (Rattus norvegicus, UniProt Q923Y9); assay: Radioligand binding at rat TAAR1 ([3H]RO5166017)
T5 construct: expressed in transfected cells; host or cells: HEK 293 cells (membrane preparations)

hNET = target: T6, hNET (Homo sapiens, UniProt P23975); assay: Radioligand binding at hNET (N-methyl-[3H]nisoxetine)
T6 construct: expressed in transfected cells; host or cells: HEK 293 cells (membrane preparations)

[1] = target: T7, dopaminergic hD2 receptor (Homo sapiens, UniProt P14416); assay: Radioligand binding at dopaminergic hD2 receptor ([3H]spiperone)
T7 construct: expressed in transfected cells; host or cells: HEK 293 cells (membrane preparations)

humans = settings: cited from earlier work
h5-HT2C receptor = target: T8, h5-HT2C receptor (Homo sapiens, UniProt P28335); assay: biochemical; format: binding; settings: [3H]mesulergine; mean ± SD; read-out: h5-HT2C Receptor binding Ki ± SD
T8 construct: expressed in transfected cells; host or cells: HEK 293 cells (membrane preparations)
T8 sequence (P28335 33-458): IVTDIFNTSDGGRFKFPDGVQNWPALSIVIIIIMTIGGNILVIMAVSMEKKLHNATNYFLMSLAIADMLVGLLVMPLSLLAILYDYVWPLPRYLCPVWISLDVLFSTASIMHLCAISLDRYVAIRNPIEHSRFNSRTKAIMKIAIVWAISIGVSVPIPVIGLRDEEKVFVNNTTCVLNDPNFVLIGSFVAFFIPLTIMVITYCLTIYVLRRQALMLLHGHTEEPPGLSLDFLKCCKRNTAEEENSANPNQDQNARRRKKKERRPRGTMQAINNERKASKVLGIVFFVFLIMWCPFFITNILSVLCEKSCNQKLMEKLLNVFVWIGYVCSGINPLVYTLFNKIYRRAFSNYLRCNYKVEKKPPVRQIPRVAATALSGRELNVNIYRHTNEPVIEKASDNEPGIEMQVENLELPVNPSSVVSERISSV

h5-HT1A receptor = target: T9, h5-HT1A receptor (Homo sapiens, UniProt P08908); assay: Radioligand binding at h5-HT1A receptor ([3H]8-OH-DPAT)
T9 construct: expressed in transfected cells; host or cells: HEK 293 cells (membrane preparations)
T9 sequence (P08908 1-422): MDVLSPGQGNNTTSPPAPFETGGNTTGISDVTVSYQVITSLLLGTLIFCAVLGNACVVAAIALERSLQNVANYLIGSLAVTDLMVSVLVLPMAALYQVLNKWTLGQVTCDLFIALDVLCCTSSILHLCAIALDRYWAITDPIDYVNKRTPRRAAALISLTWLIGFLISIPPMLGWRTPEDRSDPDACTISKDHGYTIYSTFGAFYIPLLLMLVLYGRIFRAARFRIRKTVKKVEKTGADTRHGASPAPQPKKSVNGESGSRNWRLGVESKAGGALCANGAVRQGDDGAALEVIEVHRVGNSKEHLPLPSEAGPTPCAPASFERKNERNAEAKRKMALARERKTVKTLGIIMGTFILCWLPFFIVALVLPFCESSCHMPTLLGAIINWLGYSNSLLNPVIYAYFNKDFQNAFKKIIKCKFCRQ

mouse TAAR1 = target: T10, mouse TAAR1 (Mus musculus, UniProt Q923Y8); assay: Radioligand binding at mouse TAAR1 ([3H]RO5166017)
T10 construct: expressed in transfected cells; host or cells: HEK 293 cells (membrane preparations)

h5-HT2A receptor = target: T11, h5-HT2A receptor (Homo sapiens, UniProt P28223); assay: Radioligand binding at h5-HT2A receptor ([3H]ketanserin); settings: for Selectivity 5-HT2A vs. 5-HT2C / Selectivity 5-HT2A vs. 5-HT1A: binding ratio; for Ki: h5-HT2A Receptor binding Ki ± SD, [3H]ketanserin, mean ± SD
T11 construct: expressed in transfected cells; host or cells: HEK 293 cells (membrane preparations)

human 5-HT2A receptor = human 5-HT2A receptor (Homo sapiens, UniProt P28223); settings: for Emax: NIH3T3, read-out: h5-HT2A Activation efficacy max ± SD, relative to 5-HT = 100%
human 5-HT2B receptor = human 5-HT2B receptor (Homo sapiens, UniProt P41595); settings: for EC50: h5-HT2B Activation potency EC50 ± SD, HEK 293 cells, calcium FLIPR, mean ± SD; for Emax: HEK293, read-out: h5-HT2B Activation efficacy max ± SD, relative to 5-HT = 100%
Sequence of human 5-HT2B receptor (P41595 whole entry): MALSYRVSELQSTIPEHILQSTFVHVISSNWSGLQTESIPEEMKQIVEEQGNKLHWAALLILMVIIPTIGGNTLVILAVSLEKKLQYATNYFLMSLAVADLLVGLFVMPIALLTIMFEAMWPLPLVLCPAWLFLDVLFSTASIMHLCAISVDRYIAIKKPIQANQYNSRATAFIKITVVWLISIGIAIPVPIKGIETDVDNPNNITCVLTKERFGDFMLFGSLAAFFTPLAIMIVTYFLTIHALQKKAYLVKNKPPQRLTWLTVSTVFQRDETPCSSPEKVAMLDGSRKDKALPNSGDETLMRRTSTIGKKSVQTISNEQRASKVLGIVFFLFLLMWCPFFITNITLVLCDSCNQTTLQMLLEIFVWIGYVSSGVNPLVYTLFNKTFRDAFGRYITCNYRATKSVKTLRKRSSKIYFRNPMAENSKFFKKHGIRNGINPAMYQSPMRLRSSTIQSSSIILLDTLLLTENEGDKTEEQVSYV

T6 sequence (P23975 whole entry): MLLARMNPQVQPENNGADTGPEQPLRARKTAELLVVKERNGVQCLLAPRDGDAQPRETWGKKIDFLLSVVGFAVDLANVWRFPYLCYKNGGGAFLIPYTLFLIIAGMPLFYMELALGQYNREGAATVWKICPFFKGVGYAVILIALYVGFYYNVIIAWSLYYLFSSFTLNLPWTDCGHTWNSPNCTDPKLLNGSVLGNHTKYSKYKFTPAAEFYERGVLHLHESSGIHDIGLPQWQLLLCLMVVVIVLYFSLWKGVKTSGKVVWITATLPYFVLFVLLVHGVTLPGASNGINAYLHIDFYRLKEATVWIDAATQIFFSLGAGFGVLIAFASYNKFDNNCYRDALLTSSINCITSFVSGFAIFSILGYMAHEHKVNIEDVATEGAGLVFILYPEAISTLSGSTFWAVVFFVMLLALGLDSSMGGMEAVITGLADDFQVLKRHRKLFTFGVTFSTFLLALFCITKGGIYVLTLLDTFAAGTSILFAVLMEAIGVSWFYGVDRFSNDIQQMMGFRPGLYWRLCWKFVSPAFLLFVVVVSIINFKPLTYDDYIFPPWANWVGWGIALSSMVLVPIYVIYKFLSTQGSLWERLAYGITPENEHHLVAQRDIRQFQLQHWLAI
T10 sequence (Q923Y8 whole entry): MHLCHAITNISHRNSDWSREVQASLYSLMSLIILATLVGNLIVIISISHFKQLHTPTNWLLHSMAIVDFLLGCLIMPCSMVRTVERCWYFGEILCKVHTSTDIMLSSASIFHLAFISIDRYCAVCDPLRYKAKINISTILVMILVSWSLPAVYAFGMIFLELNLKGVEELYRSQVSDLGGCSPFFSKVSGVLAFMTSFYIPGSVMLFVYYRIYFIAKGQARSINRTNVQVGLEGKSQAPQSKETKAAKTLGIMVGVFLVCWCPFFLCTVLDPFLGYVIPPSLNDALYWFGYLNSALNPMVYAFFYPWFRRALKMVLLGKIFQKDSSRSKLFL
T4 sequence (P31645 whole entry): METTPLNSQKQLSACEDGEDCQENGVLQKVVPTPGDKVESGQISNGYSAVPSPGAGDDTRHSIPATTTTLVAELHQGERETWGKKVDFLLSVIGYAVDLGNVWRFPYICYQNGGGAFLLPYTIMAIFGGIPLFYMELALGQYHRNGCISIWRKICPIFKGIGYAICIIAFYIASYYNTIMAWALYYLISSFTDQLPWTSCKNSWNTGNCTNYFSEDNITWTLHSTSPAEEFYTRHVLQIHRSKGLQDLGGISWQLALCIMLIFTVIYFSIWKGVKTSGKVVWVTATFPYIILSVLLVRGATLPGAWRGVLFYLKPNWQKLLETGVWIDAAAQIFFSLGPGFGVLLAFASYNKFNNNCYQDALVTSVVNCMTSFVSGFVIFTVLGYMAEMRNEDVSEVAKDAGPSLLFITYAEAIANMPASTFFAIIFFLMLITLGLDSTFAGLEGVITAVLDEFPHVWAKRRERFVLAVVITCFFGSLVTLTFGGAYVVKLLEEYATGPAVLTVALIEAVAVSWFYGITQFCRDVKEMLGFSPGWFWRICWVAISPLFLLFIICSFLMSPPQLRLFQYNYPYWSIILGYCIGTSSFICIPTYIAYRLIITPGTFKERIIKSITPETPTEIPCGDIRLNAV
T7 sequence (P14416 whole entry): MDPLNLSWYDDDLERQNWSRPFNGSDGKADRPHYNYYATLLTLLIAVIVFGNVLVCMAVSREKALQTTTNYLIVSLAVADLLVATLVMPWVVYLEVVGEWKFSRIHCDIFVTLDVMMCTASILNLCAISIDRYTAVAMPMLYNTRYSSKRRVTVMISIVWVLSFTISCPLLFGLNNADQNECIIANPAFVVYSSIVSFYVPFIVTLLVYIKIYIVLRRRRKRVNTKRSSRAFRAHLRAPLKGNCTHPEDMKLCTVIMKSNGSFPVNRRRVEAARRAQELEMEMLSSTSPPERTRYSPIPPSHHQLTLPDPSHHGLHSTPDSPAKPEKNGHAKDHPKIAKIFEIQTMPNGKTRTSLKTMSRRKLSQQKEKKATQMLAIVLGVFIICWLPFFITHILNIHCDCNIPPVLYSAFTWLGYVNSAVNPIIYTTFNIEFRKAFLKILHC
T5 sequence (Q923Y9 whole entry): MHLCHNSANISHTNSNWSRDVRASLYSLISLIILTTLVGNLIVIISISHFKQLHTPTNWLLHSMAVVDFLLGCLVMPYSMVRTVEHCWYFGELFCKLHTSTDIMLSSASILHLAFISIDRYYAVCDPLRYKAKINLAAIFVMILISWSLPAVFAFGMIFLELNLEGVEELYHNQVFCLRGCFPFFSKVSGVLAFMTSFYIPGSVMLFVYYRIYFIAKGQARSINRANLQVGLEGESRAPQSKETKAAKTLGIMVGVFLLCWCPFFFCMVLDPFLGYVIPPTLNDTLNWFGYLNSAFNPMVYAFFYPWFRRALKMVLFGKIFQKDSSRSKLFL
T3 sequence (Q01959 whole entry): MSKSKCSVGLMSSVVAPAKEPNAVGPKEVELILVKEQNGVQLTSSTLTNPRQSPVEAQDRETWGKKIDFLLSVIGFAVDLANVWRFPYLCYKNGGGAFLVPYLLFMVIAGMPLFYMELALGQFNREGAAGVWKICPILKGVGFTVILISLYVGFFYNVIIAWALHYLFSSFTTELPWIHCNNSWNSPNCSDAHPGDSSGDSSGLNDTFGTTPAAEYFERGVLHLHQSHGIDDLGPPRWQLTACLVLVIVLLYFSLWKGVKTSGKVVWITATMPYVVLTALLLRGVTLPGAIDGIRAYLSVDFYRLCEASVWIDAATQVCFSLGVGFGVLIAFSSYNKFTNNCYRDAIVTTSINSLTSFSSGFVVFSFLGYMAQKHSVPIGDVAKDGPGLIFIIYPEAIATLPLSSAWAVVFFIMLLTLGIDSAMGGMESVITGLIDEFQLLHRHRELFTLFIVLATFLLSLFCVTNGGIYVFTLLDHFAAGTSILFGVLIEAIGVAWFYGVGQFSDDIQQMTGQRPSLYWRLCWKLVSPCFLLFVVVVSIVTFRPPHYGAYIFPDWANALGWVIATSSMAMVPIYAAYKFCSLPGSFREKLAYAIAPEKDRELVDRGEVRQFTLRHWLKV
Sequence of human 5-HT2A receptor (P28223 whole entry): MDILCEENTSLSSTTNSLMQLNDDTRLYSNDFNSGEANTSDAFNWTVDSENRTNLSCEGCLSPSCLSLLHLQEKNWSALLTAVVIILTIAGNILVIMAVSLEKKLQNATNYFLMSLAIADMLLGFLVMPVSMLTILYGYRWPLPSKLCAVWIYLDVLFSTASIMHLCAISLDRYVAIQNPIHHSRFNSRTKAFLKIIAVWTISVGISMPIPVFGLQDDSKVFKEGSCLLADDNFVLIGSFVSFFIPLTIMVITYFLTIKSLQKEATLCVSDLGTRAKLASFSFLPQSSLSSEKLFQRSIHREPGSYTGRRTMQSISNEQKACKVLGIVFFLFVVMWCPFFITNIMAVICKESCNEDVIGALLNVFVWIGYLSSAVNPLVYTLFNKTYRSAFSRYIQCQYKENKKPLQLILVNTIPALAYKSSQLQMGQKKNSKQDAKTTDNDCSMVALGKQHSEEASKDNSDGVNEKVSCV
T11 sequence (P28223 whole entry): as above

Row | Structure (SMILES) | Ki (hα1A adrenergic receptor) [µM] | Ki (hα2A adrenergic receptor) [µM] | Ki (hDAT) [µM] | Ki (hSERT) [µM] | Ki (rat TAAR1) [µM] | Ki (hNET) [µM] | Ki [1] [µM] | Ki (h5-HT2C receptor) [µM] | Ki (h5-HT1A receptor) [µM] | Ki (mouse TAAR1) [µM] | Selectivity 5-HT2A vs. 5-HT2C (h5-HT2A receptor) | Ki (h5-HT2A receptor) [µM] | EC50 (human 5-HT2A receptor) [µM] | EC50 (human 5-HT2B receptor) [µM] | Psychedelic / active dose in humans (humans; ref Shulgin and Shulgin 1991) [mg] | Emax (human 5-HT2A receptor) [%] | Emax (human 5-HT2B receptor) [%] | other results
1 | C=CCOc1c(OC)cc(CC(C)N)cc1OC (stereo not shown) [compound 31, 4-allyloxy-3,5-dimethoxyamphetamine] | > 8.7 | > 5.1 | > 8.5 | > 7.5 | 3.6 | > 9.7 | > 6.3 | 1.7 | > 5.6 | 3.3 | 1.7 | 1.1 | 0.19 ± 0.03 | > 10 |  |  |  | Active dose in humans (humans; ref Trachsel et al., 2013): 15 to 30 mg; Increase in 5-HT2A receptor affinity compared with TMA (6) (h5-HT2A receptor; ratio of Ki values): ≥ 10 fold
2 | COc1cc(CC(C)N)c(OC)cc1C (stereo not shown) [compound 7, 2,5-dimethoxy-4-methylamphetamine, reference compound] |  |  |  |  |  |  |  |  |  |  |  |  |  |  | 3 to 10 |  |  | 
3 | COc1cc(CCN)cc(OC)c1OCCF [compound 16, 3,5-dimethoxy-4-(2-fluoroethoxy)phenethylamine] | > 8.7 | 3.7 | > 8.5 | > 7.5 | > 4 | > 9.7 | > 6.3 | 5.7 | > 5.6 | > 4.2 |  | > 12 | 5.7 | 2.3 |  | 85 to 94 | 29 ± 7 | 
4 | COc1cc(CCN)cc(OC)c1OC(C)C [compound 22, 3,5-dimethoxy-4-isopropoxyphenethylamine] | > 8.7 | 1.2 | > 8.5 | > 7.5 | > 4.7 | > 9.7 | > 6.3 | 5.4 | > 5.6 | > 4.2 | 0.9 | 6.2 | 1.9 | > 10 |  |  |  | Selectivity 5-HT2A vs. 5-HT1A (h5-HT2A receptor): >1
5 | COc1cc(CC(C)N)cc(OC)c1OCC(F)F (stereo not shown) [compound 19, 4-(2,2-difluoroethoxy)-3,5-dimethoxyamphetamine] | > 8.7 | > 5.1 | > 8.5 | > 7.5 | 3.9 | > 9.7 | > 6.3 | 2.6 | > 5.6 | > 4.2 | 1.7 | 1.5 | 0.12 ± 0.02 | 0.26 ± 0.03 |  | 86 to 102 | 18 to 29 | 
6 | COc1cc(CCN)cc(OC)c1SC [compound 10, 4-thiomescaline, reference compound] |  |  |  |  |  |  |  |  |  |  |  |  |  |  | 20 to 40 |  |  | Increase in human potency compared to mescaline (5) (humans; ref Shulgin and Shulgin 1991): 10 fold
7 | COc1cc(CC(C)N)cc(OC)c1OCCF (stereo not shown) [compound 20, 3,5-dimethoxy-4-(2-fluoroethoxy)amphetamine] | > 8.7 | > 5.1 | > 8.5 | > 7.5 | > 4.7 | > 9.7 | > 6.3 | 8.4 | > 5.6 | > 4.2 |  | 12 | 0.12 ± 0.04 | 0.8 ± 0.24 |  | 86 to 102 | 18 to 29 | Selectivity 5-HT2A vs. 5-HT1A (h5-HT2A receptor): >1
8 | COc1cc(CC(C)N)c(OC)cc1Br (stereo not shown) [compound 2, 4-bromo-2,5-dimethoxyamphetamine, reference compound] |  |  |  |  |  |  |  |  |  |  |  |  |  |  | 1 to 3 |  |  | 
9 | COc1cc(CC(C)N)cc(OC)c1OCCCF (stereo not shown) [compound 27, 3,5-dimethoxy-4-(3-fluoropropoxy)-amphetamine] | > 8.7 | > 5.1 | > 8.5 | > 7.5 | > 4.7 | > 9.7 | > 6.3 | 4.4 | > 5.6 | 2.8 | 1.7 | 2.6 | 0.057 ± 0.002 | > 10 |  |  |  | 
10 | COc1cc(CCN)cc(OC)c1OCC(F)F [compound 17, 4-(2,2-difluoroethoxy)-3,5-dimethoxyphenethylamine] | > 8.7 | 2.7 | > 8.5 | > 7.5 | 2.1 | > 9.7 | > 6.3 | 2.7 | > 5.6 | > 4.2 | 0.9 | 2.9 | 1.3 | 1.7 |  | 44 to 78 | 25 ± 7 | 
